Numbers after ± are expanded uncertainties.
Assay: molar heat capacity at constant pressure
Details: 101.33 kPa, Liquid, Small sample (50 mg) DSC

OCCCCCO [1,5-pentanediol]
Details | molar heat capacity at constant pressure [J/K/mol]
293.15 K | 229.04 ± 3.5
294.65 K | 230.06 ± 3.6
296.15 K | 231.1 ± 3.6
297.65 K | 232.14 ± 3.6
298.15 K | 232.49 ± 3.6
299.15 K | 233.19 ± 3.6
300.65 K | 234.25 ± 3.6
302.15 K | 235.31 ± 3.6
303.65 K | 236.39 ± 3.7
305.15 K | 237.47 ± 3.7
306.65 K | 238.56 ± 3.7
308.15 K | 239.66 ± 3.7
309.65 K | 240.77 ± 3.7
311.15 K | 241.89 ± 3.8
312.65 K | 243.01 ± 3.8
314.15 K | 244.14 ± 3.8
315.65 K | 245.28 ± 3.8
317.15 K | 246.43 ± 3.8
318.65 K | 247.59 ± 3.8
320.15 K | 248.76 ± 3.9
321.65 K | 249.93 ± 3.9
323.15 K | 251.11 ± 3.9
324.65 K | 252.3 ± 3.9
326.15 K | 253.5 ± 3.9
327.65 K | 254.7 ± 4
329.15 K | 255.92 ± 4
330.65 K | 257.14 ± 4
332.15 K | 258.37 ± 4
333.65 K | 259.61 ± 4
335.15 K | 260.86 ± 4
336.65 K | 262.11 ± 4.1
338.15 K | 263.38 ± 4.1
339.65 K | 264.65 ± 4.1
341.15 K | 265.93 ± 4.1
342.65 K | 267.22 ± 4.1
344.15 K | 268.51 ± 4.2
345.65 K | 269.82 ± 4.2
347.15 K | 271.13 ± 4.2
348.65 K | 272.45 ± 4.2
350.15 K | 273.78 ± 4.2
351.65 K | 275.12 ± 4.3
353.15 K | 276.46 ± 4.3

OCCCCCCCCCO [1,9-nonanediol]
Details | molar heat capacity at constant pressure [J/K/mol]
318.65 K | 389.02 ± 6
320.15 K | 391.15 ± 6.1
321.65 K | 393.27 ± 6.1
323.15 K | 395.39 ± 6.1
324.65 K | 397.51 ± 6.2
326.15 K | 399.62 ± 6.2
327.65 K | 401.73 ± 6.2
329.15 K | 403.84 ± 6.3
330.65 K | 405.94 ± 6.3
332.15 K | 408.03 ± 6.3
333.65 K | 410.12 ± 6.3
335.15 K | 412.21 ± 6.4
336.65 K | 414.3 ± 6.4
338.15 K | 416.38 ± 6.5
339.65 K | 418.45 ± 6.5
341.15 K | 420.52 ± 6.5
342.65 K | 422.59 ± 6.5
344.15 K | 424.66 ± 6.6
345.65 K | 426.72 ± 6.6
347.15 K | 428.77 ± 6.6
348.65 K | 430.82 ± 6.7
350.15 K | 432.87 ± 6.7
351.65 K | 434.92 ± 6.7
353.15 K | 436.95 ± 6.8

OCCCCO [1,4-butanediol]
Details | molar heat capacity at constant pressure [J/K/mol]
293.15 K | 200.51 ± 3.1
294.65 K | 201.33 ± 3.1
296.15 K | 202.16 ± 3.1
297.65 K | 202.99 ± 3.1
298.15 K | 203.27 ± 3.1
299.15 K | 203.82 ± 3.2
300.65 K | 204.67 ± 3.2
302.15 K | 205.51 ± 3.2
303.65 K | 206.36 ± 3.2
305.15 K | 207.22 ± 3.2
306.65 K | 208.08 ± 3.2
308.15 K | 208.95 ± 3.2
309.65 K | 209.82 ± 3.2
311.15 K | 210.7 ± 3.3
312.65 K | 211.58 ± 3.3
314.15 K | 212.47 ± 3.3
315.65 K | 213.36 ± 3.3
317.15 K | 214.26 ± 3.3
318.65 K | 215.17 ± 3.3
320.15 K | 216.08 ± 3.4
321.65 K | 216.99 ± 3.4
323.15 K | 217.91 ± 3.4
324.65 K | 218.83 ± 3.4
326.15 K | 219.76 ± 3.4
327.65 K | 220.7 ± 3.4
329.15 K | 221.64 ± 3.4
330.65 K | 222.58 ± 3.5
332.15 K | 223.53 ± 3.5
333.65 K | 224.49 ± 3.5
335.15 K | 225.45 ± 3.5
336.65 K | 226.41 ± 3.5
338.15 K | 227.38 ± 3.5
339.65 K | 228.36 ± 3.5
341.15 K | 229.34 ± 3.5
342.65 K | 230.33 ± 3.6
344.15 K | 231.32 ± 3.6
345.65 K | 232.32 ± 3.6
347.15 K | 233.32 ± 3.6
348.65 K | 234.32 ± 3.6
350.15 K | 235.34 ± 3.6
351.65 K | 236.35 ± 3.7
353.15 K | 237.38 ± 3.7

OCCO [1,2-ethanediol]
Details | molar heat capacity at constant pressure [J/K/mol]
293.15 K | 148.1 ± 2.3
294.65 K | 148.57 ± 2.3
296.15 K | 149.05 ± 2.3
297.65 K | 149.53 ± 2.3
298.15 K | 149.69 ± 2.3
299.15 K | 150.01 ± 2.3
300.65 K | 150.48 ± 2.3
302.15 K | 150.96 ± 2.3
303.65 K | 151.44 ± 2.4
305.15 K | 151.92 ± 2.4
306.65 K | 152.4 ± 2.4
308.15 K | 152.88 ± 2.4
309.65 K | 153.36 ± 2.4
311.15 K | 153.83 ± 2.4
312.65 K | 154.31 ± 2.4
314.15 K | 154.79 ± 2.4
315.65 K | 155.27 ± 2.4
317.15 K | 155.75 ± 2.4
318.65 K | 156.23 ± 2.4
320.15 K | 156.71 ± 2.4
321.65 K | 157.19 ± 2.4
323.15 K | 157.67 ± 2.4
324.65 K | 158.15 ± 2.5
326.15 K | 158.63 ± 2.5
327.65 K | 159.11 ± 2.5
329.15 K | 159.6 ± 2.5
330.65 K | 160.08 ± 2.5
332.15 K | 160.56 ± 2.5
333.65 K | 161.04 ± 2.5
335.15 K | 161.52 ± 2.5
336.65 K | 162 ± 2.5
338.15 K | 162.49 ± 2.5
339.65 K | 162.97 ± 2.5
341.15 K | 163.45 ± 2.5
342.65 K | 163.93 ± 2.5
344.15 K | 164.42 ± 2.5
345.65 K | 164.9 ± 2.5
347.15 K | 165.38 ± 2.6
348.65 K | 165.86 ± 2.6
350.15 K | 166.35 ± 2.6
351.65 K | 166.83 ± 2.6
353.15 K | 167.32 ± 2.6

— the NIST ThermoML archive (doi:10.1021/je800356x)
